Source: patent publication US20010039286A1, “2-aryl indole derivatives and their use as therapeutic agents” (priority 2000, published 2001)

- melting point: 147 to 150 °C
Compound: Cl.OC1(Cc2ccccc2)CCN(CCCc2c(-c3ccc(Cl)cc3)[nH]c3ccc(Cl)cc23)CC1
